Experimental data taken from US10098887B2, “Antiviral compounds and methods of use thereof” (Trana Discovery, Inc., priority 2010, dated 2018).

system: interaction between Human tRNA^Lys3 and HIV-1 genomic RNA; experiment: Biochemical HIV-1 tRNA Inhibition Assay (AlphaScreen); format: binding; design: key: +: showing some activity; ++: intermediate activity; +++: the highest activity; details: active compounds from high throughput screening, prioritized on IC50
Source text: The methods for detecting binding of the target RNA to the tRNA or the inhibition of such binding may be performed using any method for such detection. For example, the AlphaScreen® assay (Packard Instrument Company, Meriden, Conn.). AlphaScreen® technology is an “Amplified Luminescent Proximity Homogeneous Assay” method utilizing latex microbeads (250 nm diameter) containing a photosensitizer (donor beads), or chemiluminescent groups and fluorescent acceptor molecules (acceptor beads). Upon illumination with laser light at 680 nm, the photosensitizer in the donor bead converts ambient oxygen to singlet-state oxygen. The excited singlet-state oxygen molecules diffuse approximately 250 nm (one bead diameter) before rapidly decaying. If the acceptor bead is in close proximity to the donor bead (i.e., by virtue of the interaction of the target RNA and tRNA fragment), the singlet-state oxygen molecules reacts with chemiluminescent groups in the acceptor beads, which immediately transfer energy to fluorescent acceptors in the same bead. These fluorescent acceptors shift the emission wavelength to 520-620 nm, resulting in a detectable signal. Antagonists of the interaction of the target RNA with the tRNA fragment will thus inhibit the shift in emission wavelength, whereas agonists of this interaction would enhance it.
In the AlphaScreen configuration (FIG. 3) the assay is done in solution using the same RNA as the immobilization assay. The donor and acceptor beads are bound to their respective RNA's. During the screening the RNAs and test drugs/small molecules are incubated together and formation of the complex is measured using the AlphaScreen detection conditions. Utilization of the AlphaScreen assay may allow for the assay to be run at a lower RNA concentration at room temperature, and increase the stability of the complex.
HIV-1 has evolved to use Human tRNA^Lys3 as a primer for initiation of reverse transcription. Therefore, the interaction between tRNA^Lys3 and viral genomic RNA represents a potential novel target for HIV-1 drug development. Based on this hypothesis, a biochemical assay to identify inhibitors of the interaction between Human tRNA^Lys3 and HIV-1 genomic RNA was developed by TRANA Discovery and transferred to Southern Research Institute for high-throughput screening. This assay was developed as a homogeneous amplified luminescent proximity assay using AlphaScreen™ reagents from PerkinElmer. Based on this assay technology, the AlphaScreen™ luminescent signal serves as a mechanism for detecting the interaction between RNA molecules that represent Human tRNA^Lys3 and HIV-1 genomic RNA. The inhibition of the interaction between these RNA molecules by test compounds is detected as a decrease in the AlphaScreen™ luminescent signal.
A preliminary 15,000 compound screen (NINDS Diversity Set) was previously completed and the results were reported through NIAID contract N01-AI-70042. For the results described herein, a 101,000 compound library that was purchased from ChemBridge for the NIAID TAACF program was used. This library was carefully selected for diversity and minimal similarity to the 100,000 compound NINDS library, which is also planned to be screened using the TRANA Discovery Biochemical HIV-1 tRNA Inhibition Assay. The compounds were screened at a concentration of 12.5 μg/mL (first 3 batches) or 25 μg/mL (fourth and final batch).

| SMILES | Activity |
| --- | --- |
| O=C1NC(=O)N(c2cccc3ccccc23)C(=O)C1=Cc1ccco1 [5-(2-furylmethylene)-1-(1-naphthyl)-2,4,6(1H,3H,5H)-pyrimidinetrione] | + |
| O=C1C(=Cc2ccc(O)c(O)c2)SC(=S)N1c1cccc(F)c1 [5-(3,4-dihydroxybenzylidene)-3-(3-fluorophenyl)-2-thioxo-1,3-thiazolidin-4-one] | ++ |
| CCN1C(=O)C(=Cc2ccc(O)c(O)c2)SC1=S [5-(3,4-dihydroxybenzylidene)-3-ethyl-2-thioxo-1,3-thiazolidin-4-one] | + |
| O=C1C(=Cc2ccc(O)c(O)c2)SC(=S)N1c1ccccc1 [5-(3,4-dihydroxybenzylidene)-3-phenyl-2-thioxo-1,3-thiazolidin-4-one] | + |
| CC(=O)N1c2ccc(C)cc2-c2c(ssc2=S)C1(C)C [5-acetyl-4,4,8-trimethyl-4,5-dihydro-1H[1,2]dithiolo[3,4-c]quinoline-1-thione] | + |
| CCOc1ccc2c(c1)-c1c(ssc1=S)C(C)(C)N2C(C)=O [5-acetyl-8-ethoxy-4,4-dimethyl-4,5-dihydro-1H-[1,2]dithiolo[3,4-c]quinoline-1-thione] | + |
| COc1ccc2c(c1)-c1c(ssc1=S)C(C)(C)N2C(C)=O [5-acetyl-8-methoxy-4,4-dimethyl-4,5-dihydro-1H-[1,2]dithiolo[3,4-c]quinoline-1-thione] | + |
| Cc1ccc(C=NNc2ccccc2[N+](=O)[O-])o1 [5-methyl-2-furaldehyde (2-nitrophenyl)hydrazone] | + |
| Cc1[nH]c(=O)[nH]c1C(=O)CCCCC(=O)O [6-(5-methyl-2-oxo-2,3-dihydro-1H-imidazol-4-yl)-6-oxohexanoic acid] | +++ |
| CCOc1ccc2c(c1)-c1c(s[s+]c1SC)C(C)(C)N2.[Cl-] [8-ethoxy-4,4-dimethyl-1-(methylthio)-4,5-dihydro[1,2]dithiolo[3,4-c]quinolin-2-ium chloride] | ++ |
| COc1ccccc1N1CCN(CC=Cc2ccc(N(C)C)cc2)CC1 [(4-{3-[4-(2-methoxyphenyl)-1-piperazinyl]-1-propen-1-yl}phenyl)dimethylamine] | + |
| Br.CCN(CC)c1ccc(Nc2nc(-c3ccccn3)cs2)cc1 [N,N-diethyl-N′-[4-(2-pyridinyl)-1,3-thiazol-2-yl]-1,4-benzenediamine hydrobromide] | + |
| Cc1ccc2nc3c(c(Nc4ccc(N(C)C)cc4)c2c1)CCC3 [N,N-dimethyl-N′-(7-methyl-2,3-dihydro-1H-cyclopenta[b]quinolin-9-yl)-1,4-benzenediamine] | + |
| Cc1nc(NC(=N)N)nc2c(C)cccc12 [N-(4,8-dimethyl-2-quinazolinyl)guanidine] | + |
| CCOc1nc(NC(=N)N)nc2c(C)cccc12 [N-(4-ethoxy-8-methyl-2-quinazolinyl)guanidine] | ++ |
| CCOc1ccc(Nc2ccc([N+](=O)[O-])c3nonc23)cc1 [N-(4-ethoxyphenyl)-7-nitro-2,1,3-benzoxadiazol-4-amine] | + |
| COc1ccc2c(C)nc(NC(=N)N)nc2c1 [N-(7-methoxy-4-methyl-2-quinazolinyl)guanidine] | + |
| CCN(CC)c1ccc(NC(=S)NC(=O)c2cccc(OC(C)C)c2)cc1 [N-({[4-(diethylamino)phenyl]amino}carbonothioyl)-3-isopropoxybenzamide] | + |
| CCN(CC)CCN(CC)Cc1ccc(N(C)C)cc1 [N-[4-(dimethylamino)benzyl]-N,N′,N′-triethyl-1,2-ethanediamine] | + |
| CCOC(=O)C(C(=O)c1ccccc1)C1=CC(=O)C(=O)c2ccc(Br)cc21 (stereo not drawn) [ethyl 2-(7-bromo-3,4-dioxo-3,4-dihydro-1-naphthalenyl)-3-oxo-3-phenylpropanoate] | + |
| CCOC(=O)c1ccc(NC2=C(N3CCOCC3)C(=O)c3ccccc3C2=O)cc1 [ethyl 4-{[3-(4-morpholinyl)-1,4-dioxo-1,4-dihydro-2-naphthalenyl]amino}benzoate] | ++ |
| CCOC(=O)c1cc(N)ccc1-c1c2ccc(=O)cc-2oc2cc(O)ccc12 [ethyl 5-amino-2-(6-hydroxy-3-oxo-3H-xanthen-9-yl)benzoate] | +++ |
| CCOC(=O)CCCCC(=O)c1[nH]c(=O)[nH]c1C [ethyl 6-(5-methyl-2-oxo-2,3-dihydro-1H-imidazol-4-yl)-6-oxohexanoate] | ++ |
| CCOC(=O)C=C1NC(c2ccccc2)=C(c2ccccc2)C1=O [ethyl (3-oxo-4,5-diphenyl-1,3-dihydro-2H-pyrrol-2-ylidene)acetate] | ++ |
| COC(=O)c1ccc(NC2=C(N3CCCC3)C(=O)c3ccccc3C2=O)cc1 [methyl 4-{[1,4-dioxo-3-(1-pyrrolidinyl)-1,4-dihydro-2-naphthalenyl]amino}benzoate] | ++ |
| COC(=O)c1ccc(NC2=C(N3CCOCC3)C(=O)c3ccccc3C2=O)cc1 [methyl 4-{[3-(4-morpholinyl)-1,4-dioxo-1,4-dihydro-2-naphthalenyl]amino}benzoate] | ++ |
| COC(=O)c1ccc(N2CCCCC2)c2c1C(=O)c1ccccc1C2=O [methyl 9,10-dioxo-4-(1-piperidinyl)-9,10-dihydro-1-anthracenecarboxylate] | ++ |

system: not listed separately; experiment: assays described herein (not specified); details: not given

| SMILES | active in the assays described herein |
| --- | --- |
| CN(C)c1ccc(C(O)(c2ccc(N(C)C)cc2)c2ccc(N(C)C)cc2)cc1 [Compound 7, tris[4-(dimethylamino)phenyl]methanol] | active |
| O=C(O)CCCCC1SCC2NC(=O)NC21 (stereo not drawn) [Compound 8, 5-(2-oxohexahydro-1H-thieno[3,4-d]imidazol-4-yl)pentanoic acid] | active |
| CCc1ccc(C2=CC(=O)c3ccccc3C2=O)cc1 [Compound 26, 2-(4-ethylphenyl)naphthoquinone] | active |
| CCc1ccc(N2N=C(C)C(=Cc3ccc(N4CCOCC4)cc3)C2=O)cc1 [Compound 32, 2-(4-ethylphenyl)-5-methyl-4-[4-(4-morpholinyl)benzylidene]-2,4-dihydro-3H-pyrazol-3-one] | active |
| O=c1cc2oc3cc(O)c(O)cc3c(-c3ccc([N+](=O)[O-])o3)c-2cc1O [Compound 38, 2,6,7-trihydroxy-9-(5-nitro-2-furyl)-3H-xanthen-3-one] | active |
| CNC(=S)N1N=C(c2ccc(OC)cc2)CC1c1ccc(N(C)C)cc1 (stereo not drawn) [Compound 40, 5-[4-(dimethylamino)phenyl]-3-(4-methoxyphenyl)-N-methyl-4,5-dihydro-1H-pyrazole-1-carbothioamide] | active |
| COc1ccc(C(=C2C=CC=C2)c2ccc(OC)cc2)cc1 [Compound 46, 1,1′-(2,4-cyclopentadien-1-ylidenemethylene)bis(4-methoxybenzene)] | active |
| CCc1cc2c(=S)c(-c3ccccc3Cl)coc2cc1OC [Compound 47, 3-(2-chlorophenyl)-6-ethyl-7-methoxy-4H-chromene-4-thione] | active |
| O=C1c2ccc([N+](=O)[O-])cc2C(=O)N1C1CC2CCC1C2 (stereo not drawn) [Compound 57, 2-bicyclo[2.2.1]hept-2-yl-5-nitro-1H-isoindole-1,3(2H)-dione] | active |
| CCCOc1ccc(C2Oc3ccc(Br)cc3C=C2[N+](=O)[O-])cc1OC (stereo not drawn) [Compound 59, 6-bromo-2-(3-methoxy-4-propoxyphenyl)-3-nitro-2H-chromene] | active |
| O=C1NC(=O)N(c2ccc(Cl)cc2)C(=O)C1=Cc1ccc([N+](=O)[O-])o1 [Compound 65, 1-(4-chlorophenyl)-5-[(5-nitro-2-furyl)methylene]-2,4,6(1H,3H,5H)-pyrimidinetrione] | active |
| CCc1ccc(N2N=C(C)C(=Cc3cc(OC)c(O)c(OC)c3)C2=O)cc1 [Compound 72, 2-(4-ethylphenyl)-4-(4-hydroxy-3,5-dimethoxybenzylidene)-5-methyl-2,4-dihydro-3H-pyrazol-3-one] | active |
